The source of these data is paper PMC8100446, “Perillaldehyde Inhibition of cGAS Reduces dsDNA-Induced Interferon Response” (Frontiers in Immunology, 2021).

What is called IC50 is the concentration that inhibits the measured activity by half.

This experiment concerns the target T1, cyclic GMP-AMP synthase (cGAS) (Homo sapiens, UniProt Q8N884).
T1 construct: purified recombinant full-length cGAS
Kind of experiment: in vitro cGAS enzymatic assay, cGAMP production measured by HPLC-MS. It is filed as biochemical.

T1 sequence (Q8N884 whole entry): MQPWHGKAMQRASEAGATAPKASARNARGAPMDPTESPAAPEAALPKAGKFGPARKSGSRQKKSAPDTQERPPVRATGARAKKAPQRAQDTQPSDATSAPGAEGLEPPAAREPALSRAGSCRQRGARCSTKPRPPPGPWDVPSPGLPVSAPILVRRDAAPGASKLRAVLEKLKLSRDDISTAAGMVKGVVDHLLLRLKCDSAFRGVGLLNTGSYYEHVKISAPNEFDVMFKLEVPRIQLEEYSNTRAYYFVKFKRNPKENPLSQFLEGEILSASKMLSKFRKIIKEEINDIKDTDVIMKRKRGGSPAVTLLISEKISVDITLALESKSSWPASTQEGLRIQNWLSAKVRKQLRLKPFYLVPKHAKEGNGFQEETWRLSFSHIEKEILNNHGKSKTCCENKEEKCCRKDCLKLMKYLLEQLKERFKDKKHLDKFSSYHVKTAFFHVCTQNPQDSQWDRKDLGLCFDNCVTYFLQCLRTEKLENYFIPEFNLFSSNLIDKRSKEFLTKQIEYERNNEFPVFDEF

The molecule `C=C(C)C1CC=C(C=O)CC1` (stereo not shown) [PAH, perillaldehyde] came in with an IC50 of 31.3 µM.
